Data published in patent US6011041A, “Use of anhydrovinblastine” (priority 1996, dated 2000).
Counter-ions that a name gives are not always drawn.

What was measured:
C-4 cells = assay: cytotoxicity on C-4 cells (FIG. 8); type: cell-based; conditions: 72 h; C-4, 3 day incubation
Description: A wide range of drug concentrations were exposed to tumour cells growing at log phase in 96-well microtitre plates. Cell concentrations depended on the cell line as well as the length of time to be cultured. Typically, P388 cells were plated at a concentration of 30,000, 2,000 and 750 cells per well for studies lasting 1, 3 and 7 days, respectively MCF7 cells were plated at a concentration of 7,000 and 1,500 cells per well for studies lasting 3 and 7 days, respectively. H460 cells were plated at a concentration of 2,500 and 1,000 cells per well for studies lasting 3 and 7 days, respectively. K562 cells were plated at a concentration of 1,500 and 10,000 cells per well for studies lasting 1 and 3 days, respectively. LS180 cells were plated at a concentration of 5,000 and […] cells per well for studies lasting 3 and 7 days, respectively. After plating all cell lines were incubated (CO2 incubator at 37° C., 5% CO2) for 24 hours prior to addition of the cytotoxic agent (See Table 1). Subsequently the plates were incubated for the indicated time period. […] After the sample was mixed through repeated pipetting, the colored product was measured using a plate reader operating at 570 nm. The absorbance values obtained for cells cultured in the absence of drug was assumed to represent 100% viability. […]

[1] = P388 tumour antitumor activity and maximum tolerated dose in BDF1 mice (FIGS. 6, 7); type: in vivo; conditions: mouse, in vivo, iv; BDF1 mice bearing P388 tumors, single i.v. injection
Description: (§1) Antitumour studies in mice focused on the P388 leukemia model. […] This is an ascitic tumour model that was generated by intraperitoneal inoculation of 1×10^6 P388 cells (derived from culture, with an original cell line obtained from the NCI tumour repository) in BDF1 mice (Charles Rivers). One day after tumour cell inoculation, mice were treated with a single intravenous injection of drug. Animal weight was monitored daily and tumour progression was measured as an increase in animal weight and through estimation of survival time. Therapy was described by a decrease in tumour progression and an increase in survival time relative to an untreated control group. Initial studies established the maximum therapeutic dose for AHVB. Subsequently comparative studies with vincristine and navelbine were initiated where animals were treated with each drug at the maximum therapeutic dose.
(§2) The in vivo antitumour activity of AHVB was compared to that of vincristine, navelbine in the BDF1-murine P388 model in the procedure as follows. P388 cells were derived from the ascities of previously injected female BDF1 mice (19-21 grams) P388 cells, from the NCI tumor repository were inoculated directly into mice. The cells arrive from NCI frozen in 1 ml aliquots. These samples were thawed rapidly at 37° C. and subsequently injected (within 1 hour) intraperitoneally into two mice, 0.5 ml per mouse. One week (7 days) after inoculation, the tumor cells were harvested by removing peritoneal fluid using a sterile syringe with a 22 gauge needle. The cells, pooled from two animals, were counted using a heamocytometer, diluted (RPMI media) to a concentration of 2×10^6 cells/ml and 0.5 ml was then re-injected into each of two BDF1 mice. Remaining cells were washed and placed into a DMSO containing media and frozen (in freezer packs that cool at a defined rate). This process was repeated weekly over a […]. Cells used for anti-tumor studies were collected from the third passage to the 20th passage. After the 20th passage the cells were no longer used for experimental studies. Newly established cells were derived from the frozen cells prepared as described above.
(§3) Groups (five mice per group) of female BDFI mice (Charles Rivers, Canada) were injected (intraperitoneal) with 10^6 P388 cells (as described above). One day after tumor cell inoculation, the mice were given a bolus intravenous injection of indicated drug via the lateral tail vein. […] Following administration of the test articles, animals were weighed daily for fourteen days and monitored for signs of stress twice daily for the first 14 days (once daily on weekends) and once daily for the remainder of the study. Severely distressed animals were terminated by CO2 asphyxiation and the time of death was recorded to occur on the following day. […]

P388 tumor = assay: as above; type: in vivo
Description: as §1, §2, §3

murine P388 leukemia = conditions: cited from earlier work
[2] = system: fast axoplasmic transport in nerve cells; conditions: cited from earlier work
tumour = conditions: alkaloids extracted from Vinca rosea; cited from earlier work

CCC1=CC2CN(CCc3c([nH]c4ccccc34)C(C(=O)OC)(c3cc4c(cc3OC)N(C)C3C(O)(C(=O)OC)C(OC(C)=O)C5(CC)C=CCN6CCC43C65)C2)C1 (centres unmarked) [AHVB, 3',4'-anhydrovinblastine]
IC50 (C-4 cells): 20 nM | MTD [1]: 40 mg/kg | times less toxic (on a weight basis) than vincristine (P388 tumor; BDF1 mice bearing P388, single i.v.): approximately 10 times | antitumor activity (number of long term survivors, >60 days) (P388 tumor; maximum tolerated dose, AHVB 40 mg/kg vs vincristine 3 mg/kg, single i.v.): significantly better than that observed for vincristine | in vivo antitumor efficacy relative to other vinca alkaloids such as vincristine and navelbine (P388 tumor; overall conclusion): significant improvements in in vivo antitumor efficacy

CCC1=C[C@@H]2CN(C1)Cc1c([nH]c3ccccc13)[C@@](C(=O)OC)(c1cc3c(cc1OC)N(C)[C@H]1[C@@](O)(C(=O)OC)[C@H](OC(C)=O)[C@]4(CC)C=CCN5CC[C@]31[C@@H]54)C2 [navelbine, 3',4'-didehydro-4'-deoxy-C'-norvincaleukoblastine-di-L-tartrate]
potency against murine P388 leukemia (murine P388 leukemia): less potent than vinbiastine and vincristine

CC[C@]1(O)C[C@H]2CN(CCc3c([nH]c4ccccc34)[C@@](C(=O)OC)(c3cc4c(cc3OC)N(C=O)[C@H]3[C@@](O)(C(=O)OC)[C@H](OC(C)=O)[C@]5(CC)C=CCN6CC[C@]43[C@@H]65)C2)C1 [vincristine, Sulfate of 22-oxovincaleukoblastine]
potency in blocking fast axoplasmic transport [2]: more potent than vinblastine or vindesine | antitumour activity (tumour): significant antitumour activity
